From ChEMBL document CHEMBL1201862, “PubChem BioAssay data set” (2004)
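Step 1: Grow cells in 96-well plates. Step 2: Expose to compound for 48 hours at 5 concentrations. Step 3: Interpolate endpoints linearly; if unreached, use highest concentration. The concentration for 50% growth inhibition is given as GI50.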 Calls of active or inactive are those of the source. Cut-off read from the data, not from the text of the source: active = GI50 up to about 1.1 µM and inactive = higher.

Assays:
Assay in all cases: inhibition of tumour cell growth, NCI panel, 48 h
[1] = tested on: UO-31
[2] = tested on: MOLT-4
[3] = tested on: NCI-H23
[4] = tested on: K562
[5] = tested on: MDA-MB-231
[6] = tested on: IGROV-1
[7] = tested on: UACC-257
[8] = tested on: NCI/ADR-RES
[9] = tested on: NCI-H460
[10] = tested on: MCF7
[11] = tested on: CCRF-CEM
[12] = tested on: SR
[13] = tested on: Hs-578T
[14] = tested on: KM12
[15] = tested on: OVCAR-8
[16] = tested on: LOX IMVI
[17] = tested on: TK-10
[18] = tested on: SNB-75
[19] = tested on: BT-549
[20] = tested on: 786-0
[21] = tested on: SF-268
[22] = tested on: A498
[23] = tested on: M14
[24] = tested on: UACC-62
[25] = tested on: NCI-H522
[26] = tested on: MDA-N
[27] = tested on: SK-OV-3
[28] = tested on: ACHN
[29] = tested on: HT-29
[30] = tested on: MDA-MB-435
[31] = tested on: CAKI-1
[32] = tested on: OVCAR-5
[33] = tested on: PC-3
[34] = tested on: SNB-19
[35] = tested on: HCT-15
[36] = tested on: COLO 205
[37] = tested on: EKVX
[38] = tested on: SK-MEL-28
[39] = tested on: DU-145
[40] = tested on: U-251
[41] = tested on: OVCAR-4
[42] = tested on: SW-620
[43] = tested on: SF-539
[44] = tested on: SK-MEL-2
[45] = tested on: NCI-H226
[46] = tested on: SN12C
[47] = tested on: A549
[48] = tested on: SK-MEL-5
[49] = tested on: T47D
[50] = tested on: HCT-116
[51] = tested on: HOP-92
[52] = tested on: SF-295
[53] = tested on: HL-60
[54] = tested on: HCC 2998
[55] = tested on: Malme-3M

SMILES: O=C(CCc1ccc(O)c(O)c1)c1ccc(O)c(O)c1O
- GI50 [1]: 52.4 µM (inactive)
- GI50 [2]: 22.3 µM (inactive)
- GI50 [3]: 21.4 µM (inactive)
- GI50 [4]: 13.2 µM (inactive)
- GI50 [5]: 20.3 µM (inactive)
- GI50 [6]: 25.1 µM (inactive)
- GI50 [7]: 31.5 µM (inactive)
- GI50 [8]: 26.5 µM (inactive)
- GI50 [9]: 13 µM (inactive)
- GI50 [10]: 19.1 µM (inactive)
- GI50 [11]: 10.2 µM (inactive)
- GI50 [12]: 24.9 µM (inactive)
- GI50 [13]: 23.6 µM (inactive)
- GI50 [14]: 17.3 µM (inactive)
- GI50 [15]: 22.9 µM (inactive)
- GI50 [16]: 27.7 µM (inactive)
- GI50 [17]: 19 µM (inactive)
- GI50 [18]: 19.1 µM (inactive)
- GI50 [19]: > 10 µM (inactive)
- GI50 [20]: 35.2 µM (inactive)
- GI50 [21]: 16.6 µM (inactive)
- GI50 [22]: 17.9 µM (inactive)
- GI50 [23]: 16.8 µM (inactive)
- GI50 [24]: 25.9 µM (inactive)
- GI50 [25]: 11.9 µM (inactive)
- GI50 [26]: 15.3 µM (inactive)
- GI50 [27]: 52.2 µM (inactive)
- GI50 [28]: 14.3 µM (inactive)
- GI50 [29]: 26.7 µM (inactive)
- GI50 [30]: 18.9 µM (inactive)
- GI50 [31]: 17.8 µM (inactive)
- GI50 [32]: 21.2 µM (inactive)
- GI50 [33]: 34.5 µM (inactive)
- GI50 [34]: 34.4 µM (inactive)
- GI50 [35]: 14.7 µM
- GI50 [36]: 17.7 µM (inactive)
- GI50 [37]: 20 µM (inactive)
- GI50 [38]: 60.7 µM (inactive)
- GI50 [39]: 19.7 µM (inactive)
- GI50 [40]: 14.8 µM (inactive)
- GI50 [41]: 19.7 µM (inactive)
- GI50 [42]: 27.4 µM (inactive)
- GI50 [43]: 15.5 µM (inactive)
- GI50 [44]: 58.7 µM (inactive)
- GI50 [45]: 11.5 µM (inactive)
- GI50 [46]: 15.3 µM (inactive)
- GI50 [47]: 34.2 µM (inactive)
- GI50 [48]: 17.3 µM (inactive)
- GI50 [49]: 23.7 µM (inactive)
- GI50 [50]: 37.3 µM (inactive)
- GI50 [51]: 22.3 µM (inactive)
- GI50 [52]: 18.3 µM (inactive)
- GI50 [53]: 11.5 µM (inactive)
- GI50 [54]: 49.8 µM (inactive)
- GI50 [55]: 28.4 µM (inactive)
